# From ChEMBL document CHEMBL5465560, “Selectivity Literature for EUbOPEN Chemogenomic Library” (2024)
# Key:
# [1] = target: T1, Serine/threonine-protein kinase D2 (Homo sapiens) (UniProt Q9BZL6); experiment: Selectivity interaction (Kinase panel (Z-LYTE Assay)) EUB0001632a PRKD2; details: at 10 µM
# T1 sequence (whole entry): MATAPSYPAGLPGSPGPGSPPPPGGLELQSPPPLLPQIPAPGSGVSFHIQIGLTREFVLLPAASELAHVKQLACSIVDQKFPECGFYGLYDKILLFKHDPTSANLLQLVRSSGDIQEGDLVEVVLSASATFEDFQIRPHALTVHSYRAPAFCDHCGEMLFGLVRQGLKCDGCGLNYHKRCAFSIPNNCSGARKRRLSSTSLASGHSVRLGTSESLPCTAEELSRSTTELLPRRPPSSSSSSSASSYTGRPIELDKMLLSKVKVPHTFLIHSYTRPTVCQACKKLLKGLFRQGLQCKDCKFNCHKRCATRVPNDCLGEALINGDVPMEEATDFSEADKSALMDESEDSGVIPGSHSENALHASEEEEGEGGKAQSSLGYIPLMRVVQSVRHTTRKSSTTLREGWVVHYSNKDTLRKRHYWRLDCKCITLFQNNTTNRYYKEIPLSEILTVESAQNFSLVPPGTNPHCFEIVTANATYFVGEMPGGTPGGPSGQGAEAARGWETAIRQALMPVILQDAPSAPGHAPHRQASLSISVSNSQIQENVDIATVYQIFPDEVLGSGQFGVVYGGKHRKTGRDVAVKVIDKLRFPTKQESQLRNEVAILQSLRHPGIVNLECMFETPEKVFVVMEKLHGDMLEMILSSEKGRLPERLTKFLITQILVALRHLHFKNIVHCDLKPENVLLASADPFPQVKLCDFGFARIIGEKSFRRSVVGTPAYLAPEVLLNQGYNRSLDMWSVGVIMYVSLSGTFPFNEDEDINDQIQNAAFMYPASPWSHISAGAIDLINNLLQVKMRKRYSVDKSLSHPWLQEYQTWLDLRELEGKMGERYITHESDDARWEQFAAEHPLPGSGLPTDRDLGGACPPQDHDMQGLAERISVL
# [2] = target: Mitogen-activated protein kinase kinase kinase 10 (Homo sapiens) (UniProt Q02779); experiment: Selectivity interaction (KinomeScan (DiscoverX)) EUB0000666a MAP3K10; details: at 10 µM
# Sequence of Mitogen-activated protein kinase kinase kinase 10 (Homo sapiens) (Q02779 whole entry, looked up): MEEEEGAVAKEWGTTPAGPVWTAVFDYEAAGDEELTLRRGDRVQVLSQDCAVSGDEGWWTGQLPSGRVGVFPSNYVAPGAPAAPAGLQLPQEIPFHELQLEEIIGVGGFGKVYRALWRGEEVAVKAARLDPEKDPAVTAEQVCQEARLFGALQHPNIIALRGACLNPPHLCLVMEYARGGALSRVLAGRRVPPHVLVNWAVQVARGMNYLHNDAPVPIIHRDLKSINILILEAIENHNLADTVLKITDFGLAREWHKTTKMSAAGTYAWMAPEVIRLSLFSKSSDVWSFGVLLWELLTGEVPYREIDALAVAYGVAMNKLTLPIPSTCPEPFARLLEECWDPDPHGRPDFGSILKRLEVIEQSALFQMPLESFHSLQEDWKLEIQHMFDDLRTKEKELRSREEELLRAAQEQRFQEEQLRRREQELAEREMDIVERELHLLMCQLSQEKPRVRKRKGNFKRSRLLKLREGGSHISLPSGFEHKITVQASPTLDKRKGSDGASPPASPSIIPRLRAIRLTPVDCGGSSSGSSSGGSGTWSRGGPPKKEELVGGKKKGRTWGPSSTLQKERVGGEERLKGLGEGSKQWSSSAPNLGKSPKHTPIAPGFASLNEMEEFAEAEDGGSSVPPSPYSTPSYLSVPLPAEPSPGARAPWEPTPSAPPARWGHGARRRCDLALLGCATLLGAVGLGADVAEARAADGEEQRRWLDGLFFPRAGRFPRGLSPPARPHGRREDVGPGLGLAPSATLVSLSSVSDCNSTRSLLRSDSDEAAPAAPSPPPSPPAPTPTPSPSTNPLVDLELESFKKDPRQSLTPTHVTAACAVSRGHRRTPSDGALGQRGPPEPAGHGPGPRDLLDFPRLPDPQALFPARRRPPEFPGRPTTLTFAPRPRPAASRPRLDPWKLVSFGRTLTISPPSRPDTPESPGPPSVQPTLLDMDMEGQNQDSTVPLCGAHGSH
# [3] = Selectivity interaction (ActivX KiNativ screen (kinase selectivity in THP-1 cell lysates)) EUB0000639a STLK6; details: Selectivity number of off-targets 0; Selectivity number of targets 283; Source Knowledge https://pubmed.ncbi.nlm.nih.gov/28498658/; at 0.2 µM
# [4] = target: Fibroblast growth factor receptor 4 (Homo sapiens, UniProt P22455); experiment: Selectivity interaction (KinomeScan (DiscoverX)) EUB0000695a FGFR4; details: at 100 nM
# Sequence of Fibroblast growth factor receptor 4 (P22455 22-802 limits assumed): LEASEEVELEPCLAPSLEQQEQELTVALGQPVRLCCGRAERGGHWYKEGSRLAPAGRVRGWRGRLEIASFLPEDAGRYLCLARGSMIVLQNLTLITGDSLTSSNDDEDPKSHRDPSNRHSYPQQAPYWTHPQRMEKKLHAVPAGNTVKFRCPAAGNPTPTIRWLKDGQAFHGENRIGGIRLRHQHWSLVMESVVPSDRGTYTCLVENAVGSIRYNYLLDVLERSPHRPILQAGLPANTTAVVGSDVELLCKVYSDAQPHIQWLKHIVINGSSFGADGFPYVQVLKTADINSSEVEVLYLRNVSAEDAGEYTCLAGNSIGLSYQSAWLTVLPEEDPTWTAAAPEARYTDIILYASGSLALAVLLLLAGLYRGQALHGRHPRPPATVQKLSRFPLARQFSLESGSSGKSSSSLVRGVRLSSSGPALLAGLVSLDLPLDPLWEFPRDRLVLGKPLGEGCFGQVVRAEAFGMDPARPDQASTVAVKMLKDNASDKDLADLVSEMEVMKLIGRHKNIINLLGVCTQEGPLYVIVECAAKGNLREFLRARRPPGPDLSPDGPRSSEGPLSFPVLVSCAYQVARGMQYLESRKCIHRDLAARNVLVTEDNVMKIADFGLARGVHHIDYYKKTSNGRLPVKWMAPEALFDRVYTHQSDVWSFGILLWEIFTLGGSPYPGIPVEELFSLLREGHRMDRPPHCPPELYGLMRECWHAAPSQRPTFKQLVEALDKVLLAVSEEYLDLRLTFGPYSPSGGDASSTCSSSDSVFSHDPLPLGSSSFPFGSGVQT
# [5] = target: Receptor-interacting serine/threonine-protein kinase 2 (Homo sapiens, UniProt O43353); experiment: Selectivity interaction (KinomeScan (DiscoverX)) EUB0001049a RIPK2; details: at 1 µM
# Sequence of Receptor-interacting serine/threonine-protein kinase 2 (O43353 whole entry, the tested form may be a part): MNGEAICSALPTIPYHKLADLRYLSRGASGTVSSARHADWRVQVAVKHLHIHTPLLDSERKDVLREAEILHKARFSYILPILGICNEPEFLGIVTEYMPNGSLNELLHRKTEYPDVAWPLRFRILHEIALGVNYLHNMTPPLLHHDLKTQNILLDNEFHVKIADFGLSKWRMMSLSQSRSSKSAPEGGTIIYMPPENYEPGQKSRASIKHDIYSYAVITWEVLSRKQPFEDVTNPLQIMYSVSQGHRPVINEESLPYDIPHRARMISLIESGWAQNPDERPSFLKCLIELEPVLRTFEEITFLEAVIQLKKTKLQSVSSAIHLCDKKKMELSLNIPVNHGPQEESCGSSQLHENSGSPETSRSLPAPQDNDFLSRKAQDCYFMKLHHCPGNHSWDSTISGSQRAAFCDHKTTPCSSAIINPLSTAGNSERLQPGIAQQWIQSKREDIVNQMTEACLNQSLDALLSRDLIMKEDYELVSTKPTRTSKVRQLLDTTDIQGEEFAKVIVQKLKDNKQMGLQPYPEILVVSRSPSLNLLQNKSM
# [6] = target: T2, Ankyrin repeat and protein kinase domain-containing protein 1 (Homo sapiens) (UniProt Q8NFD2); experiment: Selectivity interaction (KinomeScan (DiscoverX)) EUB0000045b ANKK1
# T2 sequence (whole entry): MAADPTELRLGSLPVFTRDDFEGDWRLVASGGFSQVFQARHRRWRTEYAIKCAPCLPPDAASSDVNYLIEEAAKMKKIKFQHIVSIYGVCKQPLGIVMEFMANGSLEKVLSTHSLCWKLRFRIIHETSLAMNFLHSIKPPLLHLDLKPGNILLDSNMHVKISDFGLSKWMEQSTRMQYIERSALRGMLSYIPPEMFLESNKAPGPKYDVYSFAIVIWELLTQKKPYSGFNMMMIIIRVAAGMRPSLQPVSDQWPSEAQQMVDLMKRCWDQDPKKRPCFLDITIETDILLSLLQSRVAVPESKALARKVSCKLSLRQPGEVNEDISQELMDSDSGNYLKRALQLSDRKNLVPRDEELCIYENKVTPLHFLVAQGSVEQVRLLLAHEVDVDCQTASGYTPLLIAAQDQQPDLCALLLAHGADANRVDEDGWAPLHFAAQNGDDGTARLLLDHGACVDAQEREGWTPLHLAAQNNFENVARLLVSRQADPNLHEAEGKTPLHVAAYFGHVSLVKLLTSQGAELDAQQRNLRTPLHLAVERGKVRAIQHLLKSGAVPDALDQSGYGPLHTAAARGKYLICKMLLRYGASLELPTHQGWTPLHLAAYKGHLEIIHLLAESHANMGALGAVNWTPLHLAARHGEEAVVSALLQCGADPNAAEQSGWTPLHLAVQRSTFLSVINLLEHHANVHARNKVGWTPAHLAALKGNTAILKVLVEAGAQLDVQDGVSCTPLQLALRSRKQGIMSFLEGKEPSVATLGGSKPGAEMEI
# [7] = target: Casein kinase I isoform gamma-1 (Homo sapiens) (UniProt Q9HCP0); experiment: Selectivity interaction (Kinase panel (KiNativ target engagement assay in Jurkat cells)) EUB0001635a CSNK1G1; assay type: cell-based; details: at 1 µM
# Sequence of Casein kinase I isoform gamma-1 (Homo sapiens) (Q9HCP0 whole entry, looked up, canonical isoform): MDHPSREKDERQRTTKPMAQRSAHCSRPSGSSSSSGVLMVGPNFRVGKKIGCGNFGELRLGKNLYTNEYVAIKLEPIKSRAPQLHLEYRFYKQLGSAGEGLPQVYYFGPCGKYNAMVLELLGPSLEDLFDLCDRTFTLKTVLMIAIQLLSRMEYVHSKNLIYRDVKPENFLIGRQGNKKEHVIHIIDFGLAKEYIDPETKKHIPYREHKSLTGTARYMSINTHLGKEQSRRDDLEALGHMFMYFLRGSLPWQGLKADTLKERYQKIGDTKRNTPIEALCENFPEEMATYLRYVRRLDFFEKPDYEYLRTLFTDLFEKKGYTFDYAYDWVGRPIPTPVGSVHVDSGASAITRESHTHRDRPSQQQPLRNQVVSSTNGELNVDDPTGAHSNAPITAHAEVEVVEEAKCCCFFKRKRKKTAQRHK
# [8] = target: T3, MAP kinase-activated protein kinase 5 (Homo sapiens) (UniProt Q8IW41); experiment: Selectivity interaction (KinomeScan (DiscoverX)) EUB0000092b MAPKAPK5; details: at 10 µM
# T3 sequence (whole entry): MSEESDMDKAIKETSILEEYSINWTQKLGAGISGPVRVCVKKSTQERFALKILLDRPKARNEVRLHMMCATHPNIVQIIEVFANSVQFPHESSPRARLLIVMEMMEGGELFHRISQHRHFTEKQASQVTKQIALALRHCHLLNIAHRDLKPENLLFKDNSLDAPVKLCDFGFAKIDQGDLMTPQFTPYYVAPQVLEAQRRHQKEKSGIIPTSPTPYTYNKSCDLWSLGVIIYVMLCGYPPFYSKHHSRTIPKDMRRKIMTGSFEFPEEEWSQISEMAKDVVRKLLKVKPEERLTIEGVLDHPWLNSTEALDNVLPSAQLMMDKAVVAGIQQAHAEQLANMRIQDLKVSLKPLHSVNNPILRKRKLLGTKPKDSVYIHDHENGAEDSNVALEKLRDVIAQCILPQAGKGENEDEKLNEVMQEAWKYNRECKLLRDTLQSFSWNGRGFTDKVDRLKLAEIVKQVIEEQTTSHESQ
# [9] = target: Serine/threonine-protein kinase VRK2 (Homo sapiens) (UniProt Q86Y07); experiment: Selectivity interaction (KinomeScan (DiscoverX)) EUB0000092b VRK2; details: at 10 µM
# Sequence of Serine/threonine-protein kinase VRK2 (Homo sapiens) (Q86Y07 whole entry): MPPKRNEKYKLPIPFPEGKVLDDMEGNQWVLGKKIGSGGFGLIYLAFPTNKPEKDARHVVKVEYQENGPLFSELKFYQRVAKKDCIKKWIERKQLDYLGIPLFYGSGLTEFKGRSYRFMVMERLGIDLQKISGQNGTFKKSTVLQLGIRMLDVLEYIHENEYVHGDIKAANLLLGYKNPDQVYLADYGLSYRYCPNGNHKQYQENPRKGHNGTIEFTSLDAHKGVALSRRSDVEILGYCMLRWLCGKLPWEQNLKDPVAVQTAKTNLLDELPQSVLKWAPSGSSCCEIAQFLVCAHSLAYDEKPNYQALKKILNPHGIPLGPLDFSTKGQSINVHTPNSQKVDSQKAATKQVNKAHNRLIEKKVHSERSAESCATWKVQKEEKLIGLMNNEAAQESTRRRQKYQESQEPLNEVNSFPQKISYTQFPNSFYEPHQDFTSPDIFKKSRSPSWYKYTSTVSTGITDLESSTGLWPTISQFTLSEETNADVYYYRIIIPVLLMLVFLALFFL
smiles,measurement,setting,value
Cn1cc(-n2cnc3c(NCc4nc5cc(Cl)c(Cl)cc5[nH]4)nc(N4CCOCC4)nc32)cn1,% of control,[1],0.629%
O=C(NOC[C@H](O)CO)c1ccc(F)c(F)c1Nc1ccc(I)cc1F,% of control,[2],100%
CC[C@@H]1[C@H](F)C(=O)N[C@@H]1COc1nccc2cc(C(N)=O)c(OC)cc12 [ZIMLOVISERTIB],% of inhibition,[3],7.4%
Cc1cc(F)c(C(=O)Nc2cccc(-c3nncn3C(C)C)n2)cc1-n1cnc(C2CC2)c1,% of control,[4],100%
COc1cc(Nc2nc(C)cc(-c3cnn4nc(OC)ccc34)n2)cc(C(F)(F)F)c1,% of control,[5],100%
C=CC(=O)Nc1cc(-n2c(=O)ccc3cnc4ccc(-c5ccc(NS(C)(=O)=O)cc5)cc4c32)ccc1C,% of control,[6]; at 1 µM,100%
same,% of control,[6]; at 10 µM,77%
C=CC(=O)Nc1ccc(C(=O)Nc2[nH]nc3c2CN(C(=O)N[C@H](CN(C)C)c2ccccc2)C3(C)C)cc1,% of engagement,[7],-7.7%
CCC(=O)N1CCN(c2ccc(-n3c(=O)ccc4cnc5ccc(-c6cnc7ccccc7c6)cc5c43)cc2C(F)(F)F)CC1,% of control,[8],100%
same,% of control,[9],100%
